Data: patent US12427200B2 (priority 2019, dated 2025)
“And” between values parts separate entries of the source, which are not always exact repeats. Equal values may be shown once.

Legend:
[1] = tested on: A/Perth/261/2009 (H1N1), H275Y mutation; conditions: mouse, in vivo
[2] = tested on: H1N1 H275Y (A/Texas/23/2012); format: cell-based, Influenza A virus
[3] = tested on: H3N2 E119V (A/Texas/12/2007); format: cell-based, Influenza A virus
[4] = tested on: A/Perth/261/2009 (H1N1) H275Y; parameters: species or system BALB/c mice; conditions: mouse, in vivo
[5] = tested on: A/Texas/23/2012 (H1N1) H275Y; parameters: species or system BALB/c mice; conditions: mouse, in vivo
[6] = tested on: NA variants H275Y (H1N1), E119V and R292K (H3N2), R152K (B); test: biochemical; format: biochemical, Influenza virus
[7] = molecular target: neuraminidase of live influenza A (H3N2) viruses (Influenza A virus, UniProt D1FVK3, I119V); test: biochemical
[8] = molecular target: NA variants H275Y (H1N1), E119V and R292K (H3N2), R152K (B) (Influenza A virus (H3N2), UniProt D1FVK3, I119V); test: biochemical; format: biochemical

Row | SMILES | Median Survival [1] | % Survival [1] | EC50 [2] | EC50 [3] | Survival [4] | Percent Body Weight (grams) ([4]; po) | Percent Body Weight (grams) [5] | Protection from lethal challenge [5] | Loss in potency against variants (up to) [6] | IC50 [7] | IC50 [8]
1 | CCOC(=O)C1=C[C@@H](OC(CC)CC)[C@H](NC(C)=O)[C@@H](N)C1 [Oseltamivir phosphate] | 7 |  |  |  |  |  |  |  |  |  | 
2 | CCOC(=O)C1=C[C@@H](OC(CC)CC)[C@H](NC(C)=O)[C@@H](N)C1 [Oseltamivir, oseltamivir] |  | 20% | > 100 nM | > 100 nM | no survivors | 89% and 84% and 82% and 74% and 100% and 102% and 99% | 84% and 78% and 100% and 97% and 92% | failed to protect | > 100 fold |  | 
3 | CC(=O)N[C@H]1[C@H]([C@H](O)[C@H](O)CO)OC(C(=O)O)=C[C@@H]1N=C(N)N [Zanamivir, zanamivir] |  |  | 93.8 nM | 74 nM |  |  |  |  | > 10 fold | 3.08 nM | 3.8 nM
